Laboratory results published in patent publication US9744220B2, “Compositions and methods for treating inflammatory diseases” (priority 2013, dated 2017).

Legend:
Trk = assay: Pharmacological Trk inhibition of sPDNF-stimulated H9c2 cardiomyocytes; type: cell-based, rat; details: K252a 200 nM 1 hr pre-incubation, sPDNF 1 μg/ml 3 hr
Procedure: Pharmacological inhibition: H9c2 cardiomyocytes were stimulated with sPDNF (1 μg/ml, 3 hr) without pretreatment (sPDNF) or after pretreatment with K252a (200 nM, 1 hr) (K252a+sPDNF), and transcripts of MCP-1 (FIG. 9A) and FKN (FIG. 9B) quantified by qPCR. Chemokine gene expression was normalized to HPRT and fold change calculated relative to vehicle-treated cells. Bars represent mean±SD fold change expression of duplicate samples, *P<0.05 and **P<0.01; experiment performed three times, each giving similar results.
First, H9c2 cardiomyocytes were pre-incubated (1 hr) with the Trk antagonist K252a, which blocks Trk signaling by inhibiting Trk autophosphorylation (53), followed by stimulation (3 hr) with sPDNF (1 μg/ml) or vehicle PBS, and quantification of MCP-1 and FKN transcripts by qPCR.
H9c2 cells were pre-treated with 0.1% DMSO vehicle control or 200 nM K252a for 1 h prior to addition of sPDNF (1 μg/ml). Supernatants and cell monolayers were collected for quantification of secreted chemokines and cells were harvested for mRNA quantification by qPCR.

TrkA-positive PC12 cells = details: bacterially-expressed truncated PDNF; cited from earlier work

| Molecule | effect on sPDNF stimulation of FKN transcripts (Trk) | effect on sPDNF stimulation of MCP-1 transcripts (Trk) | survival and differentiation of TrkA-positive PC12 cells (TrkA-positive PC12 cells) |
| --- | --- | --- | --- |
| COC(=O)[C@@]1(O)C[C@H]2O[C@]1(C)n1c3ccccc3c3c4c(c5c6ccccc6n2c5c31)C(=O)NC4 [K252a] | completely abrogated | completely abrogated | – |
| truncated PDNF equivalent to amino acids 1-425 of SEQ ID NO:2: truncated PDNF, amino acids 1-425 of SEQ ID NO:2 (protein, listed as Trypanosoma cruzi) MGKTVVVASRMFWLMFFVPLLLAICPSEPAYALAPGSSRVELFKRKNSTVPFEDKAGKVTERVVHSFRLPALVNVDGVMVAIADARYDTSNDNSLIDTVAKYSVDDGETWETQIAIKNSRVSSVSRVVDPTVIVKGNKLYVLVGSYYSSRSYWSSHGDARDWDILLAVGEVTKSTAGGKITASIKWGSPVSLKKFFPAEMEGMHTNQFLGGAGVAIVASNGNLVYPVQVTNKKKQVFSKIFYSEDDGKTWKFGKGRSDFGCSEPVALEWEGKLIINTRVDWKRRLVYESSDMEKPWVEAVGTVSRVWGPSPKSNQPGSQSSFTAVTIEGMRVMLFTHPLNFKGRWLRDRLNLWLTDNQRIYNVGQVSIGDENSAYSSVLYKDDKLYCLHEINTDEVYSLVFARLVGELRIIKSVLRSWKNWDSHL | – | – | did not |
| truncated PDNF corresponding to amino acids 1-445 of SEQ ID NO:2: bacterially-expressed truncated PDNF, amino acids 1-445 of SEQ ID NO:2 (protein, listed as Trypanosoma cruzi) MGKTVVVASRMFWLMFFVPLLLAICPSEPAYALAPGSSRVELFKRKNSTVPFEDKAGKVTERVVHSFRLPALVNVDGVMVAIADARYDTSNDNSLIDTVAKYSVDDGETWETQIAIKNSRVSSVSRVVDPTVIVKGNKLYVLVGSYYSSRSYWSSHGDARDWDILLAVGEVTKSTAGGKITASIKWGSPVSLKKFFPAEMEGMHTNQFLGGAGVAIVASNGNLVYPVQVTNKKKQVFSKIFYSEDDGKTWKFGKGRSDFGCSEPVALEWEGKLIINTRVDWKRRLVYESSDMEKPWVEAVGTVSRVWGPSPKSNQPGSQSSFTAVTIEGMRVMLFTHPLNFKGRWLRDRLNLWLTDNQRIYNVGQVSIGDENSAYSSVLYKDDKLYCLHEINTDEVYSLVFARLVGELRIIKSVLRSWKNWDSHLSSICTPADPAASSSESGCGP | – | – | promoted survival and differentiation |
